{"source": "patent US12667584B2", "about": "“Adenosine analog and its use in regulating the circadian clock” (NATIONAL INSTITUTE OF BIOLOGICAL SCIENCES, BEIJING, priority 2017, dated 2026)", "key": {"liver culture slice": {"system": "liver culture slice", "assay": "Ex vivo liver slice culture from Per2::LUC mice, lumicycle", "format": "cell-based, mouse", "details": "100 μM at Per2::LUC peak", "from_the_text": "(§1) Tissue culture, drug treatment and Real-Time Monitoring of Circadian Oscillations: 8 week-old male mPer2 Luciferase knockin mice were Sacrificed cervical dislocation. Then wipe the skin and neck with cotton containing 70% ethanol in a sterile hood. For SCN slice culture, firstly remove the eye balls from the head with scissors, decapitate and cut the skin. Then open the skull, remove all bone until the olfactory bulbs can be seen, cut the optic nerve between the olfactory bulbs and the hemispheres, and finally harvest the whole brain into ice cold HBSS. Trim the brain in HBSS by removing the cerebellum and olfactory bulbs. Attach the brain to a sample tray by glue with the rostral tip upwards and ventral surface closest to the cutting blade, then immediately fill the tray with ice cold HBSS and set the tray to the vibratome. Set the vibratome frequency at the maximum and the speed to the medium. To reach the SCN area quickly, the start cutting off thicker sections should be 500-800 μm. Reduce the sections thicker to 100 μm when the optic chiasm becomes wider. When the two SCN nuclei start to appear, collect the slice with transfer pipettes and check slices under dissecting microscope. […] Data was extract and analyzed with LumiCycle Analysis software. […]"}, "SCN culture slice": {"system": "SCN culture slice", "assay": "Ex vivo SCN slice culture from Per2::LUC mice, lumicycle", "format": "cell-based, mouse", "from_the_text": "as §1"}}, "note": "“Also recorded” adds a separate entry of the source."}
{"molecule": "Nc1ncnc2c1ncn2[C@@H]1O[C@H](CO)C[C@H]1O", "note": "[Cordycepin, 3′-deoxy-adenosine]", "values": [{"measurement": "clock phase of liver slice versus DMSO", "setting": "liver culture slice", "value": "totally antiphase"}, {"measurement": "clock phase of SCN slice", "setting": "SCN culture slice", "value": "significant phase-shift with lower amplitude; also recorded: totally antiphase"}]}
